According to patent US6747032B2, “Pyrimidin-4-one compounds” (Les Laboratoires Servier, priority 2001, dated 2004):

Assays:
5-HT2c receptors = molecular target: T1, 5-HT2c receptors (Rattus norvegicus, UniProt P08909); assay: Penile erection test in the rat (erections caused by RO 60-0175); type: in vivo; details: sc, male Wistar rats, s.c., compound 30 min before RO 60-0175 (1.25 mg/kg s.c.), erections counted over 30 min, read-out: inhibitory dose 50 (ID50), inhibition of penile erections caused by RO 60-0175
T1 construct: from tissue; host or cells: whole animal (male Wistar rat, in vivo)
T1 sequence (P08909 33-460): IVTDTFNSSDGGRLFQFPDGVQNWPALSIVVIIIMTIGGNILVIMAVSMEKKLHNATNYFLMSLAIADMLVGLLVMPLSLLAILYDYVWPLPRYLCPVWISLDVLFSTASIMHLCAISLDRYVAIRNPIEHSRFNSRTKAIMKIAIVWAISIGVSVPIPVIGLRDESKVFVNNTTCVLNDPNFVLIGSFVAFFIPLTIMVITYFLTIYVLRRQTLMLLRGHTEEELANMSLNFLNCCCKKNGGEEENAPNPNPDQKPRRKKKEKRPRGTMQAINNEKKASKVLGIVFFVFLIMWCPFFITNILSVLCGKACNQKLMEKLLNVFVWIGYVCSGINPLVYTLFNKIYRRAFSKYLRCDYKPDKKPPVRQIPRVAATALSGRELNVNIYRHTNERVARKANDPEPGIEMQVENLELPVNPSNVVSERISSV
Method: This test allows evaluation of the capacity of pharmacological agents to inhibit penile erections caused by administration of a selective 5-HT2c agonist, RO 60-0175.
Male rats of the Wistar strain weighing 120-140 g on the day of the experiment are placed separately in plexiglass observation boxes immediately after the compound under test or the vehicle has been administered. Thirty minutes later, RO 60-0175 (1.25 mg/kg, subcutaneous) is administered to the animals and the number of erections occurring during the next 30 minutes is counted.

male CD-1 mice = assay: Test for aggressiveness caused by isolation, in the mouse; type: in vivo; details: isolated male CD-1 mice, i.p., 30 min before test, measured over three minutes
Method: The animals used are male CD-1 mice. From the time of their arrival, the mice are isolated in individual cages, with free access to food and drink. After a period of one month of isolation, pairs of mice that are stable in terms of aggressiveness are selected by observing the latency period and the number and the duration of attacks when the mice are placed in the presence of one another.
The test is conducted once per week. On the day of the test, each mouse of the pair (resident and intruder) is given an intraperitoneal injection of the vehicle (control animals) or of the compound under test (treated animals) in a volume of 10 ml/kg. After 30 minutes, the intruder mouse is introduced into the cage of the resident mouse. The latency period until the first attack and the number and the duration of attacks are then measured over a period of three minutes.
A compound is considered to be specifically anti-aggressive when it reduces the number and the duration of attacks at non-sedative doses.

[1] = system: male mice of the NMRI strain; assay: Marble-burying test in the mouse; type: in vivo; details: s.c., 30 minutes' exploration, 24 marbles
Source text: This test allows evaluation of the capacity of pharmacological agents to inhibit spontaneous marble-burying behaviour in the mouse, the inhibition being predictive of antidepressant and/or anti-impulsive action.
Male mice of the NMRI strain weighing from 20 to 25 g on the day of the experiment are placed individually in Macrolon boxes containing 5 cm of sawdust and covered with a perforated plexiglass plate. Twenty-four “tiger's eye” glass marbles are evenly distributed on the sawdust at the periphery of the box. At the end of 30 minutes' free exploration, the animals are removed from the box and the number of buried marbles is counted.

α2-adrenergic receptors = assay: Affinity for α2-adrenergic receptors, competition with [3H]-RX 821,002; type: binding; details: rat cerebral cortex membranes, 0.4 nM [3H]-RX 821,002, 60 minutes at 22° C.
Method: The affinity was determined by competition experiments with [^3H]-RX 821,002. The membranes are prepared from the cerebral cortex of the rat and are incubated in triplicate with 0.4 nM [^3H]-RX 821,002 and the compound being tested in a final volume of 1.0 ml, for 60 minutes at 22° C. The incubation buffer contains […] TRIS-HCl (pH 7.5), 1 mM EDTA and 100 μM GppNHp. The non-specific binding is determined using 10 μM phentolamine.
Data Analysis: At the end of the incubation, the incubation medium is filtered through WHATMAN GF/B filters impregnated with 0.1% of polyethylenimine and washed three times with 5 ml of cooled buffer. The radioactivity retained on the filters is determined by liquid scintillation counting. The binding isotherms are analysed by non-linear regression.

Cc1nc2ccccn2c(=O)c1CCN1CC2COc3ccc4ccccc4c3C2C1.O=C(O)/C=C/C(=O)O (stereo not shown) [Example 3, 3-[2-(1,3a,4,11c-Tetrahydrobenzo[5,6]chromeno[3,4-c]pyrrol-2(3H)-yl)-ethyl]-2-methyl-4H-pyrido[1,2-a]pyrimidin-4-one Fumarate]
ED50 (5-HT2c receptors): 2.6 mg/kg | inhibitory dose 50 (ID50), number and duration of attacks (male CD-1 mice): 7 mg/kg | inhibitory dose 50 (ID50), spontaneous marble-burying behaviour [1]: 4.1 mg/kg | pKi (α2-adrenergic receptors): 7.5
